Assay type in all cases: cell-based
The target of assay [1] is T1, PSEN1-APH1A γ-secretase complex (Homo sapiens, UniProt P49768).
T1 construct: expressed in transfected cells; host or cells: Psen1/2 double KO/Aph1ABC triple KO MEFs, pMSCV retroviral PSEN-IRES-APH1
Put plainly: Aβ40 secretion by MEF cell line expressing only PSEN1-APH1A γ-secretase (APP-C99-GFP reporter). The settings on record: 8 h, Beerse site unless otherwise indicated, read-out: IC50, Aβ40 peptides. The text has this:
Mouse embryonic fibroblast (MEF) cells deficient for the Psen and Aph1 genes (Psen1/2^−/−, Aph1ABC^−/−) were reconstituted with human PSEN1 or PSEN2 and with human APH1A or APH1B to generate four independent cell lines, each constitutively expressing exclusively one type of γ-secretase complex (Fig. S1A) ([19]). A human APP-C99-GFP reporter was introduced to enable the measurement of Aβ peptides in the conditioned media of the cells to monitor γ-secretase activity. The assay was established in a 96-well format.
(§1) Conditional Psen1/2 double KO mice were crossed with conditional Aph1ABC triple KO mice ([29], [52], [58], [59]). At embryonic day 7.5, embryos were dissected and dissociated, and cells were plated in the presence of Dulbecco’s modified Eagle’s medium (DMEM)/F12 50% fetal calf serum (FCS) (Invitrogen). Primary MEFs were immortalized by transduction with LargeT antigen. Psen1/2 double KO/Aph1ABC triple KO MEFs were generated by transduction with a Cre-GFP–expressing adenoviral vector, and GFP-positive MEFs were sorted by fluorescence-activated cell sorting analysis. Psen1/2 Aph1ABC-deficient MEFs were maintained in DMEM/f12 10% FCS. To rescue γ-secretase expression, Psen1/2 double KO/Aph1ABC triple KO MEFs were transduced using Murine Stem Cell Virus retroviral vector system (pMSCV) viral vectors (Clontech) containing the human coding sequences of the different PSEN and APH1 homologs and the zeocin selection marker. An Internal Ribosome Entry Site sequence was cloned between the coding sequences for PSEN and APH1 to ensure co-expression of both proteins. Stable transfected cell lines were selected using 500-μg/ml zeocin (Invitrogen). Four different combinations were made: PSEN1 and APH1AL, PSEN1 and APH1B, PSEN2 and APH1AL, and PSEN2 and APH1B. These cell lines were transduced with pMSCV viral vectors (Clontech) expressing APP-C99-GFP-puromycin. After puromycin selection (5 μg/ml), GFP-positive cells were selected through FACS sorting. For the alanine mutagenesis experiment, pMSCV PSEN1-APH1A viral vectors were generated by using a long PCR-based QuikChange strategy (Stratagene). Stable cell lines without clonal selection were generated for each mutant as described above. All cell lines were regularly tested for the absence of mycoplasma and used for maximum 20 passages in culture.
The number of plated cells and incubation times were determined in respect to linearity of Aβ peptide secretion, the dynamic range of Aβ peptide quantification in the medium, and sensitivity to dimethylsulfoxide (DMSO). […] The cell viability was assessed using the CellTiter-Glo Luminescent assay (Promega) that measures ATP production. […]

Assay [2] has as its target T2, PSEN1 I168A–APH1A γ-secretase complex (Homo sapiens, UniProt P49768, I168A).
T2 construct: expressed in transfected cells; host or cells: Psen1/2 double KO/Aph1ABC triple KO MEFs, pools without clonal selection
Briefly: Aβ40 secretion, MEF cell pool restored with PSEN1 I168A–APH1A. The settings on record: decimal comma; for IC50: PSEN1 I168A (TM3)–APH1A cell pool, N = 3 to 4, mean (95% CI). How it is done: (§2) We turned to experimental site–directed mutagenesis and selected a series of amino acids (Fig. 3) in the entrance channel for mutation to alanine. […] More importantly, they were all enzymatically active as shown by the secretion of Aβ40 in the supernatants of the cell cultures (Fig. 3B).
as §1, with “After puromycin selection (5 μg/ml), GFP-positive cells were selected through FACS sorting. For the alanine mutagenesis experiment, pMSCV PSEN1-APH1A viral vectors were generated by using a long PCR-based QuikChange strategy (Stratagene). Stable cell lines without clonal selection were generated for each mutant as described above. All cell lines were regularly tested for the absence of mycoplasma and used for maximum 20 passages in culture.” left out
(§3) The number of plated cells and incubation times were determined in respect to linearity of Aβ peptide secretion, the dynamic range of Aβ peptide quantification in the medium, and sensitivity to dimethylsulfoxide (DMSO). […] The cell viability was assessed using the CellTiter-Glo Luminescent assay (Promega) that measures ATP production. […] We however measured five compounds at the Leuven site and noticed that absolute IC50 values were different (Fig. S2). […]

Assay [3] deals with T3, PSEN1 L172A–APH1A γ-secretase complex (Homo sapiens, UniProt P49768, L172A).
T3 construct: expressed in transfected cells; host or cells: Psen1/2 double KO/Aph1ABC triple KO MEFs, pools without clonal selection
Briefly: Aβ40 secretion, MEF cell pool restored with PSEN1 L172A–APH1A. The settings on record: for increase in binding affinity by alanine substitution of L172: PSEN1 L172A versus WT. How it is done:
as §2, §1
The number of plated cells and incubation times were determined in respect to linearity of Aβ peptide secretion, the dynamic range of Aβ peptide quantification in the medium, and sensitivity to dimethylsulfoxide (DMSO). […] MEF cells were plated in DMEM F12 supplemented with 10% FCS at 10,000 cells per well in 96-well clear bottom plates in the late afternoon and cultured for 16 h at 37 °C, 5% CO2. In the morning of the second day, the medium was replaced with 60 μl of DMEM/F12 supplemented with 2% FCS, and GSI or DMSO (controls) were added. Compounds were tested in serial dilutions with concentrations ranging from […] to 0.1 nM with 3-fold changes. The final concentration of DMSO in all wells was 0.2%. Plates were put in the incubator again at 37 °C, 5% CO2. After 8 h, the culture media were collected, and 30 μl was used to measure Aβ40 peptides. The cell viability was assessed using the CellTiter-Glo Luminescent assay (Promega) that measures ATP production. All screens were performed at one site, and reported IC50 values throughout the manuscript are from this site (Beerse) unless otherwise indicated. We however measured five compounds at the Leuven site and noticed that absolute IC50 values were different (Fig. S2). The main goal of the current work is to explore the basis for inhibitor selectivity for different γ-secretases, and selectivity was consistent in the assays at the two sites (Fig. S2).
Standard 96-well SECTOR plates (MSD) were coated with 1.5 μg/ml anti-Aβ JRFcAβ40/28 capture antibody in a final volume of 50 μl of PBS 0.05% Tween 20. After overnight incubation at 4 °C, the plates were five times rinsed with PBS 0.05% Tween 20 and blocked with 150 μl per well of casein buffer (PBS with 1% casein, pH 7.4) for 4 h at room temperature. Standards (synthetic human Aβ 1–40) were diluted in culture media. […]

Assay [4] addresses T4, PSEN1 Y154A–APH1A γ-secretase complex (Homo sapiens, UniProt P49768, Y154A).
T4 construct: expressed in transfected cells; host or cells: Psen1/2 double KO/Aph1ABC triple KO MEFs, pools without clonal selection
Briefly: Aβ40 secretion, MEF cell pool restored with PSEN1 Y154A–APH1A. The settings on record: decimal comma. How it is done:
as §2
as §1, with “After puromycin selection (5 μg/ml), GFP-positive cells were selected through FACS sorting. For the alanine mutagenesis experiment, pMSCV PSEN1-APH1A viral vectors were generated by using a long PCR-based QuikChange strategy (Stratagene). Stable cell lines without clonal selection were generated for each mutant as described above. All cell lines were regularly tested for the absence of mycoplasma and used for maximum 20 passages in culture.” left out
as §3

Each structure is given as a SMILES string.

`O=S(=O)(c1ccc(Cl)cc1)N1[C@H]2CC[C@@H]([C@H]1c1ccc(C(F)(F)F)cc1)[C@@H](O)C2` [(+)-9b]: the 50% inhibitory concentration (IC50) in assay [1] was determined as 0.022 µM; in assay [2], 0.015 µM. The “IC50 fold change to WT” value in assay [2] (PSEN1 I168A–APH1A cell pool) is listed as 0,511 fold. In addition, in assay [3], the “increase in binding affinity by alanine substitution of L172” value was 3.1 fold.
For the compound `C[C@H](NC(=O)Cc1cc(F)cc(F)c1)C(=O)N[C@H](C(=O)OC(C)(C)C)c1ccccc1` [DAPT], the IC50 in assay [4] (PSEN1 Y154A (TM2)–APH1A cell pool, N = 3 to 4, mean (95% CI)) was 0.103 µM; in assay [2] it was 0.043 µM; in assay [3] (PSEN1 L172A (TM3)–APH1A cell pool, N = 3 to 4, mean (95% CI), decimal comma) it was 0.0036 µM. The “IC50 fold change to WT” value in assay [4] (PSEN1 Y154A–APH1A cell pool) is 0,611 fold. The “increase in binding affinity by alanine substitution of L172” value in assay [3] is listed as 47 fold.

As usually defined, the IC50 is the concentration that gives 50% inhibition.

These data come from publication PMC10318456, “Selective inhibitors of the PSEN1–gamma-secretase complex” (The Journal of Biological Chemistry, 2023).
